Results published in US11371055B2, “Herbicide resistance genes” (CORTEVA AGRISCIENCE LLC, priority 2005, dated 2022).

Tests used:
[1] = tested on: Untransformed Control corn; experiment: Herbicide tolerance of untransformed control corn in the F1 stack test; assay type: in vivo, Zea mays; conditions: 1120 g ae/ha 2,4-D DMA
Description: (§1) AAD-12 (v1) (pDAB4101) and elite Roundup Ready inbred (BE1146RR) were reciprocally crossed and F1 seed was collected. The seed from two F1 lines were planted and treated with 70 g ae/ha imazethapyr at the V2 stage to eliminate nulls. To the surviving plants, reps were separated and either treated with 1120 g ae/ha 2,4-D DMA+70 g ae/ha imazethapyr (to confirm presence of AHAS gene) or 1120 g ae/ha 2,4-D DMA+1680 g ae/ha glyphosate (to confirm the presence of the Round Up Ready gene) in a track sprayer calibrated to 187 L/ha. Plants were graded 3 and 16 DAT.

[2] = tested on: F1 stack of AAD-12 (v1) (pDAB4101) and BE1146RR corn; experiment: Herbicide tolerance of F1 stack AAD-12 (v1) x BE1146RR corn; assay type: in vivo, Zea mays; conditions: 1120 g ae/ha 2,4-D DMA
Description: as §1

[3] = tested on: T1 AAD-12 (v1) rice lines pDAB4101(20)003 and pDAB4101(27)002; experiment: 2,4-D DMA tolerance in T1 rice; assay type: in vivo, Oryza sativa
Description: The following T1 AAD-12 (v1) single segregating locus lines were planted into 3-inch pots containing Metro Mix media: pDAB4101(20)003 and pDAB4101(27)002. At 2-3 leaf stage were sprayed with 140 g ae/ha imazethapyr. Nulls were eliminated and individuals were sprayed at V3-V4 stage in the track sprayer set to 187 L/ha at 1120, 2240 or 4480 g ac/ha 2,4-D DMA (2×, 4×, and 8× typical commercial use rates, respectively). Plants were graded at 7 and 14 DAT and compared to untransformed commercial rice cultivar. ‘Lamont,’ as negative control plants.

[4] = tested on: PHL tobacco suspension co-cultivated with Agrobacterium carrying pDAB724; experiment: Tobacco cell transformation with AAD-12 (v1) and 2,4-D selection; assay type: cell-based
Experimental: For tobacco transformation experiment, there were 11 treatments altogether: a control set plated on LS-BY2C+dichlorprop medium, and 10 sets of LSBY2C+dichlorprop+2,4-D at varying concentration levels (1, 2, 3, 5, 8, 10, 12, 15, 18, 20 mg/L). There were four replications per treatment. The plasmid DNA vector used was pDAB724, and the vector used for transformation was EHA101S strain of Agrobacterium tumefaciens. Four ml of PHL suspension at 0.6 OD^660 were mixed with 100 ul of Agrobacterium (either EHA101 or LBA4404 strains) suspension at 1.0 OD^660 in a sterile Petri plate and were mixed thoroughly and co-cultivated together in a non-shake condition at a dark growth chamber for 3 days at 25° C. After the co-cultivation period 1.5 ml of the Agro-tobacco suspension mixture was plated to the 11 set of plates above. […] Again, there were four replicates per treatment, as well as a positive and negative control. All media contain 500 mg/L Carbenicillin (C) to control to contain Agrobacterium growth in the selection media.
The plasmid used in these experiments is pDAB724 and it has PAT selectable marker as well. So, control transformation experiments were initiated using R-dichlorprop habituated PHL in the presence of 10 mg/L bialophos following the standard protocol described above. […]

[5] = tested on: T4 Arabidopsis seed homozygous for AAD-12 (v1) spiked into wildtype (sensitive) seed; experiment: AAD-12 (v1) as selectable marker with 2,4-D as selection agent; assay type: in vivo, Arabidopsis thaliana; conditions: applied 7 and 11 days after planting (DAP); Resistant or Sensitive identified 17 DAP
Experimental: The ability to use AAD-12 (v1) as a selectable marker using 2,4-D as the selection agent was analyzed initially with Arabidopsis transformed as described above. Approximately 50 T4 generation Arabidopsis seed (homozygous for AAD-12 (v1)) were spiked into approximately 5,000 wildtype (sensitive) seed. Several treatments were compared, each tray of plants receiving either one or two application timings of 2,4-D in one of the following treatment schemes: 7 DAP, 11 DAP, or 7 followed by 11 DAP. Since all individuals also contained the PAT gene in the same transformation vector, AAD-12 selected with 2,4-D could be directly compared to PAT selected with glufosinate.
Treatments were applied with a DeVilbiss spray tip as previously described. Plants were identified as Resistant or Sensitive 17 DAP.

[6] = tested on: R-dichlorprop habituated BY2 tobacco cells; experiment: 2,4-D dose response of tobacco cell suspension (BY2); assay type: cell-based; conditions: LSBY2C medium
Experimental: A dose response study was conducted with both the R-dichlorprop habituated PHL cells and the R-dichlorprop habituated BY2 cells where R-dichlorprop was substituted directly for 2,4-D in culture media. Though the focus was on PHL, a dose response was also done with BY2 in case of possible future studies, as well as to help predict the dose response for PHL. For the dichlorprop habituated PHL dose response, the levels of 2,4-D used (on LSBY2C medium with R-dichlorprop) were 0 (the control), 1, 2, 3, 5, 8, 10, 12, 15, 18, 20, 40, 60, 80, […] mg/L 2,4-D. There were four replications per concentration. For the R-dichlorprop habituated BY2 dose response, the levels of 2,4-D used (on LSBY2C medium) were 0 (the control), 1, 2, 3, 5, 8, 10, 20, 30, 40, mg/L 2,4-D.

[7] = tested on: AAD-2 (v1) transformed T1 Arabidopsis; experiment: 2,4-D dose response of AAD-2 (v1) transformed T1 Arabidopsis; assay type: in vivo, Arabidopsis thaliana; conditions: 200 g ae/ha 2,4-D
Experimental: Freshly harvested T1 seed transformed with a plant optimized AAD-12 (v1) or native AAD-2 (v1) gene were planted and selected for resistance to glufosinate as previously described Plants were then randomly assigned to various rates of 2,4-D (50-3200 g ae/ha). Herbicide applications were applied by track sprayer in a 187 L/ha spray volume. 2,4-D used was the commercial dimethylamine salt formulation (456 g ae/L, NuFarm, St Joseph, Mo.) mixed in 200 mM Tris buffer (pH 9.0) or 200 mM HEPES buffer (pH7.5).

Compound	Average % Injury 16DAT [1] [%]	Average % Injury 16DAT ([2]; AAD-12 (v1) pDAB4101(0)003.R003.AF) [%]	Average % Injury 16DAT ([2]; AAD-12 (v1) pDAB4101(0)005.R001.AF) [%]	Average % injury 14 DAT ([3]; T1 pDAB4101(20)003, 1120 g ae/ha) [%]	Average % injury 14 DAT ([3]; T1 pDAB4101(20)003, 2240 g ae/ha) [%]	Average % injury 14 DAT ([3]; T1 pDAB4101(20)003, 4480 g ae/ha) [%]	Average % injury 14 DAT ([3]; T1 pDAB4101(27)002, 1120 g ae/ha) [%]	Average % injury 14 DAT ([3]; T1 pDAB4101(27)002, 2240 g ae/ha) [%]	Average % injury 14 DAT ([3]; T1 pDAB4101(27)002, 4480 g ae/ha) [%]	2,4-D concentration beyond which bulked AAD-12 (v1) callus did not grow ([4]; 20, 40, 60, 80, 100, and 120 mg/L 2,4-D tested) [mg/L]	sub-lethal concentration of 2,4-D (above it lethal to the non-transformed cells) ([4]; LS-BY2C+dichlorprop medium) [mg/L]	optimum treatment for selection of transformed plants [5] [g ae/ha]	lethal concentration of 2,4-D [6] [mg/L]	sub lethal concentration of 2,4-D [6] [mg/L]	overall population injury [7]
CNC.O=C(O)COc1ccc(Cl)cc1Cl [2,4-D DMA]	21	0	0	10	15	23	10	30	40	–	–	–	–	–	–
O=C(O)COc1ccc(Cl)cc1Cl [2,4-D, 2,4-dichlorophenoxyacetic acid]	–	–	–	–	–	–	–	–	–	≤ 20	10	75	10	8	about 83%
